Experiment: Solubility of caffeine in caffeine-containing compositions containing various helper esters
Details: compared with caffeine in pure water; Tables 1-9

## CC(C)OC(=O)[C@@H](N)Cc1c[nH]c2ccccc12 [tryptophan isopropyl ester]
  solubility of caffeine in water with helper ester (statement in words): increased

— patent publication US9211249B2, “Methods and compositions for transdermal delivery of caffeine in the form of solutions or suspensions” (priority 2013, dated 2015)
